# Measurements from US8871753B2, “Macrocyclic compounds and their use as kinase inhibitors” (Incyte Corporation, priority 2008, dated 2014).
# Structures can show the parent of a compound that is named as a salt. Where two headings read alike, the source gives them in different places.
# Columns and labels:
# Format in all cases: biochemical
# [1] = target: T1, Recombinant Human Anaplastic Lymphoma Kinase (Homo sapiens, UniProt Q9UM73); assay: ALK HTRF kinase assay
# T1 construct: purchased Invitrogen, Carlsbad, Calif
# T1 sequence (Q9UM73 19-1620): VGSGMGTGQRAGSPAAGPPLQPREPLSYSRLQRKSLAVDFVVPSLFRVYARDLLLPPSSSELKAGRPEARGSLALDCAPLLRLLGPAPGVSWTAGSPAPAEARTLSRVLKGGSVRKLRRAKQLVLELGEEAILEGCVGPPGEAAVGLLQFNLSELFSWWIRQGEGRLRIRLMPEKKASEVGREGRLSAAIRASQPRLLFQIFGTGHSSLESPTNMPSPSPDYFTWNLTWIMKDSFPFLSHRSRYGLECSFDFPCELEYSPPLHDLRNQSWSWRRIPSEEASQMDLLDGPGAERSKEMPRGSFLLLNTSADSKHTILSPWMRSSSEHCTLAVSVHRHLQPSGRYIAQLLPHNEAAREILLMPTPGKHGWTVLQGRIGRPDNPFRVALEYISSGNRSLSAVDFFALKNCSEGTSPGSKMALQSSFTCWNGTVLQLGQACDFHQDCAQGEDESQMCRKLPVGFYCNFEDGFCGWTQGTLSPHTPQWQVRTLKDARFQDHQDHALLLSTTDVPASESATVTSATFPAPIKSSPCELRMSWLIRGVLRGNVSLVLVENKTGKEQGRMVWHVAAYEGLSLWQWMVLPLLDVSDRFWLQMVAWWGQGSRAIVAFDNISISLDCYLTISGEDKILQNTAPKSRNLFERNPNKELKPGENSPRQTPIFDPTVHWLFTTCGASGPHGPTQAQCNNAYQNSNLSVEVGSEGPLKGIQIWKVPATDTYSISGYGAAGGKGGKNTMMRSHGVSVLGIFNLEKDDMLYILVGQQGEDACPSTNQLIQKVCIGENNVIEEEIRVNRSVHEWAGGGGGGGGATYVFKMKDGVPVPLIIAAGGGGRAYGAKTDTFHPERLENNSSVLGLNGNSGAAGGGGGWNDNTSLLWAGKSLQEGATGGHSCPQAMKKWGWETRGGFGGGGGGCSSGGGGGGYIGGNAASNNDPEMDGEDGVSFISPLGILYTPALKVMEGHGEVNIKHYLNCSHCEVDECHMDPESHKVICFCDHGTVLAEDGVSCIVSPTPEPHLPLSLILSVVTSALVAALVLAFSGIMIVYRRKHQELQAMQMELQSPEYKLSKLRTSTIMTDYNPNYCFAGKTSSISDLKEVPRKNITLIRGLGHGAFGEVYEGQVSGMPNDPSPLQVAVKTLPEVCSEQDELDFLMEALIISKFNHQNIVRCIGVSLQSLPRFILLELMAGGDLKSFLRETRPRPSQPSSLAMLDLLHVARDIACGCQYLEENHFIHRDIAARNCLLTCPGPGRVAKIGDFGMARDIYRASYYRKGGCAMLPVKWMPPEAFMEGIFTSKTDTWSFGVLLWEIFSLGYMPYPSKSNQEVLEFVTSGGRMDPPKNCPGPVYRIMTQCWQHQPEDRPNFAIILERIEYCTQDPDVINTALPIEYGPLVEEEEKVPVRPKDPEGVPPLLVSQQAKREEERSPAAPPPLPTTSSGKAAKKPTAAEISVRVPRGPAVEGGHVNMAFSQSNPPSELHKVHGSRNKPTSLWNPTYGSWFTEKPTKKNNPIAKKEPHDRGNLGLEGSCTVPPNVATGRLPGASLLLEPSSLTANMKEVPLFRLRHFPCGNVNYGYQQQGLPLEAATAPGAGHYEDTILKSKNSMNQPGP
# Method in brief: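 Biotinylated peptide substrate, recombinant human ALK; detection via europium-chelate antibody to phosphotyrosine paired with streptavidin-APC. Potency expressed as IC50 from four-parameter curve fitting.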
# [2] = target: T2, human JAK3 (a.a. 781-1124) (Homo sapiens, UniProt P52333); assay: In vitro JAK kinase assay (HTRF, phosphorylation of a biotinylated peptide), JAK3
# T2 construct: JAK3 (a.a. 781-1124); His tag (N); made in house; host or cells: insect cells (baculovirus)
# T2 sequence (P52333 781-1124): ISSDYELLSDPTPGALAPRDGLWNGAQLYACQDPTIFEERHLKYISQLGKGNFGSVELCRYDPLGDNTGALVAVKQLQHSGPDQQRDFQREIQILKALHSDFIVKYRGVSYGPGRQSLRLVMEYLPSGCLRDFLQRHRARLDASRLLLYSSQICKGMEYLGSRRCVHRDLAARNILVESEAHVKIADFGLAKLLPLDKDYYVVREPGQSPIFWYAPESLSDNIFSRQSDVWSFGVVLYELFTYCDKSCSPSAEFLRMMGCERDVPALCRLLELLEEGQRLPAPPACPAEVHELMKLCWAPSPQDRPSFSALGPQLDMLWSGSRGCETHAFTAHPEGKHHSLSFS
# Method in brief: (§1)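 Phosphorylation of a biotinylated peptide by the JAK kinase domain, detected by HTRF with Eu-Py20 and SA-APC. ATP was 90 μM for JAK1, 30 μM for JAK2 and 3 μM for JAK3. Reactions ran 1 h at room temperature and were stopped with EDTA, followed by 40 min antibody binding.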
# [3] = target: T3, human JAK2 (a.a. 828-1132) (Homo sapiens, UniProt O60674); assay: In vitro JAK kinase assay (HTRF, phosphorylation of a biotinylated peptide), JAK2
# T3 construct: JAK2 (a.a. 828-1132); His tag (N); made in house; host or cells: insect cells (baculovirus)
# T3 sequence (O60674 828-1132): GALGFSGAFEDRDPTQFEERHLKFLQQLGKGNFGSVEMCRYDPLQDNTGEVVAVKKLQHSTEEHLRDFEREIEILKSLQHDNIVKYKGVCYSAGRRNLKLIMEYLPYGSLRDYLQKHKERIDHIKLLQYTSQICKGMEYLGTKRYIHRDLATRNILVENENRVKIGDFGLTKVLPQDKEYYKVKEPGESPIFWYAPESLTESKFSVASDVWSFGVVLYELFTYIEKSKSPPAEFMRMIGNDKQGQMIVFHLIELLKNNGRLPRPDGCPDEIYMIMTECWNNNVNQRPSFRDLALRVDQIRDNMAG
# Method in brief: as §1
# [4] = target: T4, human JAK1 (a.a. 837-1142) (Homo sapiens, UniProt P23458); assay: In vitro JAK kinase assay (HTRF, phosphorylation of a biotinylated peptide), JAK1; conditions: read-out: JAK1 IC50
# T4 construct: human JAK1 (a.a. 837-1142); His tag (N); made in house; host or cells: insect cells (baculovirus)
# T4 sequence (P23458 849-1154): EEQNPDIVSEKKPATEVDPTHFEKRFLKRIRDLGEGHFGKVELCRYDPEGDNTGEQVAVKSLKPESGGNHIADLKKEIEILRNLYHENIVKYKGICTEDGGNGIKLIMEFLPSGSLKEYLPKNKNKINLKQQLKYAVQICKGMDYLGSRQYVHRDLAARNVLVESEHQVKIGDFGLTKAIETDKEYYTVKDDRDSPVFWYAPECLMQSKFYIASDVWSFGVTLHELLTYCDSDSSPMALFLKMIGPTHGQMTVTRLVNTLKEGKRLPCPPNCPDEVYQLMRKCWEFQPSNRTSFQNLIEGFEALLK
# Method in brief: as §1
# [5] = target: TYK2 (Homo sapiens, UniProt P29597); assay: TYK2 kinase inhibition (Table A1)
# Chain of TYK2 (P29597 whole entry): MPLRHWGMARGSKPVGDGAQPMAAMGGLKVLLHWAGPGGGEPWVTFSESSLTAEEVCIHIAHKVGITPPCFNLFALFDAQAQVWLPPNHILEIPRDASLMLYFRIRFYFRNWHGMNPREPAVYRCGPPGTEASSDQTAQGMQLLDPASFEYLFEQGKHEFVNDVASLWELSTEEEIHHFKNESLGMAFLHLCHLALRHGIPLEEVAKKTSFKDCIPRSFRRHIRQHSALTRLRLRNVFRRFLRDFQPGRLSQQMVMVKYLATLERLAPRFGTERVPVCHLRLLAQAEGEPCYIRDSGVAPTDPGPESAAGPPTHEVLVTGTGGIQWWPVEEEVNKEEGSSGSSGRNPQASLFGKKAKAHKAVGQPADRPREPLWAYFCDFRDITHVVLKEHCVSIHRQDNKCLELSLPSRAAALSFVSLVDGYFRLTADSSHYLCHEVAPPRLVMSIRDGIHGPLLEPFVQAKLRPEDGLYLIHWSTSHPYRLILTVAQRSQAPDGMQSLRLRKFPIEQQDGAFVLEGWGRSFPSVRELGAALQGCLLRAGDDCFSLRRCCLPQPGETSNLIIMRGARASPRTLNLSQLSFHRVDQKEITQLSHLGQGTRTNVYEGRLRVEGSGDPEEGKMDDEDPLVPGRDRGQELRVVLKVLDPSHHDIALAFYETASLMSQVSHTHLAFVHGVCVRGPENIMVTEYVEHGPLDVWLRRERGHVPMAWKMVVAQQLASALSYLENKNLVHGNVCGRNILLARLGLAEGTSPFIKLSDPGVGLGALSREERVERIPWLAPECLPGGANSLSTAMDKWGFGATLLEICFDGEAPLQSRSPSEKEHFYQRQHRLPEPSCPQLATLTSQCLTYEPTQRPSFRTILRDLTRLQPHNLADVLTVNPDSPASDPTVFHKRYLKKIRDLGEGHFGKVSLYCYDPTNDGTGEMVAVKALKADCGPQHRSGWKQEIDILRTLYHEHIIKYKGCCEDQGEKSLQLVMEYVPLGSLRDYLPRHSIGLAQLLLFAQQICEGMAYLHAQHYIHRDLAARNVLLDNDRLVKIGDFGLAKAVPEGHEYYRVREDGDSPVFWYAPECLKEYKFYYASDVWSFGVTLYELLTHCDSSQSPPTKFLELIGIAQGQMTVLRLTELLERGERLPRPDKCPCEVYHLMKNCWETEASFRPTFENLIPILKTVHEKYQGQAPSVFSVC
# [6] = compound at 500 nM or 1 mM, 90 μM ATP
# [7] = method AA1 (3 μM ATP) or AA2 (1000 μM ATP), not stated per value
# [8] = method AA1 (30 μM ATP) or AA2 (1000 μM ATP), not stated per value
# [9] = method AA1 (90 μM ATP) or AA2 (1000 μM ATP), not stated per value
# [10] = Table B1, cells without percent sign
# [11] = compound at a concentration of 500 nM or 1 mM (not specified), cells shown as percentage
structure (smiles),measurement,setting,value
"CC(=O)N1Cc2cccc(c2)Nc2nc(ncc2Cl)Nc2cccc1c2 [Example D71, 15-Acetyl-6-chloro-2,4,8,15,22-pentaazatetracyclo[14.3.1.1(3,7).1(9,13)]docosa-1(20),3(22),4,6,9(21),10,12,16,18-nonaene trifluoroacetate]",IC50,"[1]; Table D1, 90 μM ATP",> 1000 nM
same,IC50,[2]; Table D1,65 nM
same,IC50,[3]; Table D1,187 nM
same,IC50,[4]; Table D1,151 nM
same,IC50,[5]; Table D1,300 nM
"CC(=O)N1CCC(CC(=O)Nc2ccc3cc2CCc2cncc(c2)Nc2ncc(Cl)c(n2)N3)C1 (stereo not shown) [Example A94, 2-(1-Acetylpyrrolidin-3-yl)-N-[6-chloro-2,4,8,18,22-pentaazatetracyclo[14.3.1.1(3,7).1(9,13)]docosa-1(20),3(22),4,6,9(21),10,12,16,18-nonaen-12-yl]acetamide bis(trifluoroacetate)]",ALK % of inhibition at a concentration of 500 nM or 1 mM,[1]; [6],26%
same,IC50,[2]; [7],86 nM
same,IC50,[3]; [8],17 nM
same,IC50,[4]; [9],21 nM
same,IC50,[5],32 nM
"CC(C)(C)NC(=O)Nc1ccc2cc1CCc1cccc(c1)Nc1ncc(Cl)c(n1)N2 [Example B87, N-(tert-Butyl)-N′-[6-chloro-2,4,8,22-tetraazatetracyclo[14.3.1.1(3,7).1(9,13)]docosa-1(20),3(22),4,6,9(21),10,12,16,18-nonaen-12-yl]urea trifluoroacetate]",IC50,[1]; [10],> 1000 nM
same,IC50,[2]; Table B1,42 nM
same,IC50,[3]; Table B1,4.5 nM
same,IC50,[4]; Table B1,5.3 nM
same,IC50,[5]; Table B1,16 nM
"Cc1oncc1S(=O)(=O)N1CCC(CC(=O)Nc2ccc3cc2CCc2cccc(c2)Nc2ncc(Cl)c(n2)N3)CC1 [Example A210, N-[6-Chloro-2,4,8,22-tetraazatetracyclo[14.3.1.1(3,7).1(9,13)]docosa-1(20),3(22),4,6,9(21),10,12,16,18-nonaen-12-yl]-2-{1-[(5-methylisoxazol-4-yl)sulfonyl]piperidin-4-yl}acetamide trifluoroacetate]",ALK % of inhibition at a concentration of 500 nM or 1 mM,[1]; [6],20%
same,IC50,[2]; [7],> 200 nM
same,IC50,[3]; [8],90 nM
same,IC50,[4]; [9],35 nM
same,IC50,[5],> 200 nM
"O=C(Nc1ccccc1)Nc1cc2cc(c1)OCCSc1cccc(c1)Nc1nc(ncc1Cl)N2 [Example D65, N-[6-Chloro-17-oxa-14-thia-2,4,8,24-tetraazatetracyclo[16.3.1.1(3,7).1(9,13)]tetracosa-1(22),3(24),4,6,9(23),10,12,18,20-nonaen-20-yl]-N′-phenylurea trifluoroacetate]",IC50,"[1]; Table D1, 90 μM ATP",> 1000 nM
same,IC50,[2]; Table D1,16 nM
same,IC50,[3]; Table D1,5.1 nM
same,IC50,[4]; Table D1,18 nM
same,IC50,[5]; Table D1,6.4 nM
"O=C(CC1CCN(C(=O)c2ccncc2)CC1)Nc1ccc2cc1CCc1cccc(c1)Nc1ncc(Cl)c(n1)N2 [Example A185, N-[6-Chloro-2,4,8,22-tetraazatetracyclo[14.3.1.1(3,7).1(9,13)]docosa-1(20),3(22),4,6,9(21),10,12,16,18-nonaen-12-yl]-2-(1-isonicotinoylpiperidin-4-yl)acetamide bis(trifluoroacetate)]",ALK % of inhibition at a concentration of 500 nM or 1 mM,[1]; [6],33%
same,IC50,[2]; [7],> 200 nM
same,IC50,[3]; [8],> 200 nM
same,IC50,[4]; [9],62 nM
same,IC50,[5],> 200 nM
"O=C(CC1CCN(c2ccccc2)CC1)Nc1ccc2cc1CCc1cncc(c1)Nc1ncc(Cl)c(n1)N2 [Example A219, N-[6-Chloro-2,4,8,18,22-pentaazatetracyclo[14.3.1.1(3,7).1(9,13)]docosa-1(20),3(22),4,6,9(21),10,12,16,18-nonaen-12-yl]-2-(1-phenylpiperidin-4-yl)acetamide tris(trifluoroacetate)]",ALK % of inhibition at a concentration of 500 nM or 1 mM,[1]; [6],20%
same,IC50,[2]; [7],> 200 nM
same,IC50,[3]; [8],90 nM
same,IC50,[4]; [9],12 nM
same,IC50,[5],180 nM
"O=C(CC1CCN(S(=O)(=O)c2ccccc2F)CC1)Nc1ccc2cc1CCc1cncc(c1)Nc1ncc(Cl)c(n1)N2 [Example A226, N-[6-Chloro-2,4,8,18,22-pentaazatetracyclo[14.3.1.1(3,7).1(9,13)]docosa-1(20),3(22),4,6,9(21),10,12,16,18-nonaen-12-yl]-2-{1-[(2-fluorophenyl)sulfonyl]piperidin-4-yl}acetamide bis(trifluoroacetate)]",ALK % of inhibition at a concentration of 500 nM or 1 mM,[1]; [6],55%
same,IC50,[2]; [7],> 400 nM
same,IC50,[3]; [8],100 nM
same,IC50,[4]; [9],5.3 nM
same,IC50,[5],> 400 nM
"CNC(=O)N1CCC(CC(=O)Nc2ccc3cc2CCc2cncc(c2)Nc2ncc(Cl)c(n2)N3)CC1 [Example A100, 4-(2-{[6-Chloro-2,4,8,18,22-pentaazatetracyclo[14.3.1.1(3,7).1(9,13)]docosa-1(20),3(22),4,6,9(21),10,12,16,18-nonaen-12-yl]amino}-2-oxoethyl)-N-methylpiperidine-1-carboxamide bis(trifluoroacetate)]",ALK % of inhibition at a concentration of 500 nM or 1 mM,[1]; [6],28%
same,IC50,[2]; [7],58 nM
same,IC50,[3]; [8],5.8 nM
same,IC50,[4]; [9],1.5 nM
same,IC50,[5],3 nM
"O=C(CC1CCN(C(=O)c2ccc(F)cc2F)CC1)Nc1ccc2cc1CCc1cccc(c1)Nc1ncc(Cl)c(n1)N2 [Example A204, N-[6-Chloro-2,4,8,22-tetraazatetracyclo[14.3.1.1(3,7).1(9,13)]docosa-1(20),3(22),4,6,9(21),10,12,16,18-nonaen-12-yl]-2-[1-(2,4-difluorobenzoyl)piperidin-4-yl]acetamide trifluoroacetate]",ALK % of inhibition at a concentration of 500 nM or 1 mM,[1]; [6],28%
same,IC50,[2]; [7],> 200 nM
same,IC50,[3]; [8],100 nM
same,IC50,[4]; [9],20 nM
same,IC50,[5],> 200 nM
"CC(=O)N1CC[C@H](NC(=O)Nc2ccc3cc2CCc2cncc(c2)Nc2ncc(Cl)c(n2)N3)C1 [Example B226, N-[(3S)-1-Acetylpyrrolidin-3-yl]-N′-[6-chloro-2,4,8,18,22-pentaazatetracyclo[14.3.1.1(3,7).1(9,13)]docosa-1(20),3(22),4,6,9(21),10,12,16,18-nonaen-12-yl]urea bis(trifluoroacetate)]",ALK % of inhibition at a concentration of 500 nM or 1 mM,[1]; [11],15%
same,IC50,[2]; Table B1,306 nM
same,IC50,[3]; Table B1,42 nM
same,IC50,[4]; Table B1,4 nM
same,IC50,[5]; Table B1,62 nM
"O=C(NCc1ccccc1)N1CCN(c2ccc(-c3cc4cc(c3)Nc3ncc(Cl)c(n3)Nc3cccc(c3)OCC4)cn2)CC1 [Example D48, bis(trifluoroacetate)]",IC50,"[1]; Table D1, 90 μM ATP",> 1000 nM
same,IC50,[2]; Table D1,27 nM
same,IC50,[3]; Table D1,2.1 nM
same,IC50,[4]; Table D1,4.9 nM
same,IC50,[5]; Table D1,8.3 nM
"O=C(Nc1ccc2cc1CCc1cncc(c1)Nc1ncc(Cl)c(n1)N2)N1CCC(c2ccccc2)CC1 [Example B314, N-[6-Chloro-2,4,8,18,22-pentaazatetracyclo[14.3.1.1(3,7).1(9,13)]docosa-1(20),3(22),4,6,9(21),10,12,16,18-nonaen-12-yl]-4-phenylpiperidine-1-carboxamide bis(trifluoroacetate)]",ALK % of inhibition at a concentration of 500 nM or 1 mM,[1]; percentage inhibition of the example compound at a concentration of 500 nM or 1 mM (not specified which),69%
same,IC50,[2]; Table B1,> 400 nM
same,IC50,[3]; Table B1,108 nM
same,IC50,[4]; Table B1,28 nM
same,IC50,[5]; Table B1,67 nM
"O=S1(=O)Nc2cccc(c2)Nc2nc(ncc2Cl)Nc2cccc1c2 [Example C6, 6-Chloro-15-thia-2,4,8,14,22-pentaazatetracyclo[14.3.1.1(3,7).1(9,13)]docosa-1(20),3(22),4,6,9(21),10,12,16,18-nonaene 15,15-dioxide trifluoroacetate]",IC50,[1],> 10000 nM
same,IC50,[2],377 nM
same,IC50,[3],70 nM
same,IC50,[4],220 nM
same,IC50,[5],240 nM
"Clc1cnc2nc1Nc1cc(cc(CN3CCNCC3)c1)CCc1cccc(c1)N2 [Example B191, 6-Chloro-11-(piperazin-1-ylmethyl)-2,4,8,22-tetraazatetracyclo[14.3.1.1(3,7).1(9,13)]docosa-1(20),3(22),4,6,9(21),10,12,16,18-nonaene dihydrochloride]",IC50,[1]; [10],1530 nM
same,IC50,[2]; Table B1,205 nM
same,IC50,[3]; Table B1,27 nM
same,IC50,[4]; Table B1,93 nM
same,IC50,[5]; Table B1,378 nM
"NC(=O)COc1cc2cc(c1)Nc1nc(ncc1Cl)Nc1cccc(c1)CC2 [Example A23, 2-{[6-Chloro-2,4,8,22-tetraazatetracyclo[14.3.1.1(3,7).1(9,13)]docosa-1(20),3(22),4,6,9(21),10,12,16,18-nonaen-11-yl]oxy}acetyl)acetamide trifluoroacetate]",ALK % of inhibition at a concentration of 500 nM or 1 mM,[1]; [6],33%
same,IC50,[2]; [7],22 nM
same,IC50,[3]; [8],1 nM
same,IC50,[4]; [9],12 nM
same,IC50,[5],37 nM
"O=C(Nc1ccc2cc1CCc1cncc(c1)Nc1ncc(Cl)c(n1)N2)N1CCN(c2ccccc2)CC1 [Example B292, N-[6-Chloro-2,4,8,18,22-pentaazatetracyclo[14.3.1.1(3,7).1(9,13)]docosa-1(20),3(22),4,6,9(21),10,12,16,18-nonaen-12-yl]-4-phenylpiperazine-1-carboxamide tris(trifluoroacetate)]",ALK % of inhibition at a concentration of 500 nM or 1 mM,[1]; [11],68%
same,IC50,[2]; Table B1,> 200 nM
same,IC50,[3]; Table B1,> 200 nM
same,IC50,[4]; Table B1,32 nM
same,IC50,[5]; Table B1,100 nM
